Data reported in PubChem BioAssay (NCI).
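Values below derive from 48-hour exposures of cells grown in 96-well plates, with endpoints linearly interpolated between the two concentrations bracketing the appropriate inhibition level. At the GI50, growth is halved. The concentration for full growth arrest is given as TGI.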

Experiments:
Assay in all cases: growth of human tumour cells (NCI), 48 h
786-0 renal = test system: 786-0 renal
A498 renal = test system: A498 renal
A549 NSCLC = test system: A549 NSCLC
ACHN renal = test system: ACHN renal
BT-549 breast = test system: BT-549 breast
CAKI-1 renal = test system: CAKI-1 renal
CCRF-CEM leukemia = test system: CCRF-CEM leukemia
COLO 205 colon = test system: COLO 205 colon
DU-145 prostate = test system: DU-145 prostate
HCC-2998 colon = test system: HCC-2998 colon
HCT-116 colon = test system: HCT-116 colon
HL-60(TB) leukemia = test system: HL-60(TB) leukemia
HOP-62 NSCLC = test system: HOP-62 NSCLC
HOP-92 NSCLC = test system: HOP-92 NSCLC
HS 578T breast = test system: HS 578T breast
HT29 colon = test system: HT29 colon
IGROV1 ovarian = test system: IGROV1 ovarian
K-562 leukemia = test system: K-562 leukemia
KM12 colon = test system: KM12 colon
M14 melanoma = test system: M14 melanoma
MALME-3M melanoma = test system: MALME-3M melanoma
MCF7 breast = test system: MCF7 breast
MDA-MB-231 breast = test system: MDA-MB-231 breast
MDA-MB-435 = test system: MDA-MB-435
MOLT-4 leukemia = test system: MOLT-4 leukemia
NCI-H226 lung = test system: NCI-H226 lung
NCI-H23 lung = test system: NCI-H23 lung
NCI-H460 lung = test system: NCI-H460 lung
NCI/ADR-RES ovarian = test system: NCI/ADR-RES ovarian
OVCAR-3 ovarian = test system: OVCAR-3 ovarian
OVCAR-4 ovarian = test system: OVCAR-4 ovarian
OVCAR-5 ovarian = test system: OVCAR-5 ovarian
OVCAR-8 ovarian = test system: OVCAR-8 ovarian
PC-3 prostate = test system: PC-3 prostate
RPMI-8226 leukemia = test system: RPMI-8226 leukemia
RXF 393 renal = test system: RXF 393 renal
SF-268 CNS = test system: SF-268 CNS
SF-295 CNS = test system: SF-295 CNS
SF-539 CNS = test system: SF-539 CNS
SK-MEL-2 melanoma = test system: SK-MEL-2 melanoma
SK-MEL-28 melanoma = test system: SK-MEL-28 melanoma
SK-MEL-5 melanoma = test system: SK-MEL-5 melanoma
SK-OV-3 ovarian = test system: SK-OV-3 ovarian
SN12C renal = test system: SN12C renal
SNB-19 CNS = test system: SNB-19 CNS
SNB-75 CNS = test system: SNB-75 CNS
SR leukemia = test system: SR leukemia
SW-620 colon = test system: SW-620 colon
T-47D breast = test system: T-47D breast
TK-10 renal = test system: TK-10 renal
U251 CNS = test system: U251 CNS
UACC-257 melanoma = test system: UACC-257 melanoma
UACC-62 melanoma = test system: UACC-62 melanoma
UO-31 renal = test system: UO-31 renal

C[C@]12CC[C@@H]3c4ccc(O)cc4CC[C@H]3[C@@H]1CC[C@@H]2NS(=O)(=O)c1ccc(Cl)cc1
GI50 (786-0 renal): 5.19 µM
TGI (786-0 renal): 19.7 µM
GI50 (A498 renal): 2.52 µM
TGI (A498 renal): 9.36 µM
GI50 (A549 NSCLC): 3.98 µM
TGI (A549 NSCLC): 15.3 µM
GI50 (ACHN renal): 3.5 µM
TGI (ACHN renal): 12.9 µM
GI50 (BT-549 breast): 5.65 µM
TGI (BT-549 breast): 22.3 µM
GI50 (CAKI-1 renal): 3.3 µM
TGI (CAKI-1 renal): 10.4 µM
GI50 (CCRF-CEM leukemia): 3.5 µM
TGI (CCRF-CEM leukemia): 37.6 µM
GI50 (COLO 205 colon): 2.17 µM
TGI (COLO 205 colon): 4.09 µM
GI50 (DU-145 prostate): 7.53 µM
TGI (DU-145 prostate): 21.6 µM
GI50 (HCC-2998 colon): 7.49 µM
TGI (HCC-2998 colon): 23.8 µM
GI50 (HCT-116 colon): 4.03 µM
TGI (HCT-116 colon): 21.7 µM
GI50 (HL-60(TB) leukemia): 5.14 µM
TGI (HL-60(TB) leukemia): 26.6 µM
GI50 (HOP-62 NSCLC): 10.2 µM
TGI (HOP-62 NSCLC): 24.4 µM
GI50 (HOP-92 NSCLC): 2.68 µM
TGI (HOP-92 NSCLC): 10.7 µM
GI50 (HS 578T breast): 2.58 µM
TGI (HS 578T breast): 14.5 µM
GI50 (HT29 colon): 2.92 µM
TGI (HT29 colon): 8.19 µM
GI50 (IGROV1 ovarian): 5.74 µM
TGI (IGROV1 ovarian): 18.4 µM
GI50 (K-562 leukemia): 3.93 µM
TGI (K-562 leukemia): 31.7 µM
GI50 (KM12 colon): 2.86 µM
TGI (KM12 colon): 9.51 µM
GI50 (M14 melanoma): 9.13 µM
TGI (M14 melanoma): 27.1 µM
GI50 (MALME-3M melanoma): 3.25 µM
TGI (MALME-3M melanoma): 10.7 µM
GI50 (MCF7 breast): 1.91 µM
TGI (MCF7 breast): 4.86 µM
GI50 (MDA-MB-231 breast): 3.6 µM
TGI (MDA-MB-231 breast): 14.2 µM
GI50 (MDA-MB-435): 1.84 µM
TGI (MDA-MB-435): 3.93 µM
GI50 (MOLT-4 leukemia): 3.46 µM
TGI (MOLT-4 leukemia): 24.4 µM
GI50 (NCI-H226 lung): 6.43 µM
TGI (NCI-H226 lung): 21.4 µM
GI50 (NCI-H23 lung): 5.67 µM
TGI (NCI-H23 lung): 23.1 µM
GI50 (NCI-H460 lung): 2.6 µM
TGI (NCI-H460 lung): 6.66 µM
GI50 (NCI/ADR-RES ovarian): 4 µM
TGI (NCI/ADR-RES ovarian): 16.8 µM
GI50 (OVCAR-3 ovarian): 3.75 µM
TGI (OVCAR-3 ovarian): 12.8 µM
GI50 (OVCAR-4 ovarian): 1.99 µM
TGI (OVCAR-4 ovarian): 8.65 µM
GI50 (OVCAR-5 ovarian): 6.02 µM
TGI (OVCAR-5 ovarian): 20.5 µM
GI50 (OVCAR-8 ovarian): 4.86 µM
TGI (OVCAR-8 ovarian): 20.6 µM
GI50 (PC-3 prostate): 2.86 µM
TGI (PC-3 prostate): 13.5 µM
GI50 (RPMI-8226 leukemia): 3.92 µM
TGI (RPMI-8226 leukemia): 23.5 µM
GI50 (RXF 393 renal): 3.02 µM
TGI (RXF 393 renal): 8.89 µM
GI50 (SF-268 CNS): 5.69 µM
TGI (SF-268 CNS): 19.9 µM
GI50 (SF-295 CNS): 1.39 µM
TGI (SF-295 CNS): 2.72 µM
GI50 (SF-539 CNS): 5.36 µM
TGI (SF-539 CNS): 19.1 µM
GI50 (SK-MEL-2 melanoma): 5.31 µM
TGI (SK-MEL-2 melanoma): 17.7 µM
GI50 (SK-MEL-28 melanoma): 7.45 µM
TGI (SK-MEL-28 melanoma): 22.3 µM
GI50 (SK-MEL-5 melanoma): 2.4 µM
TGI (SK-MEL-5 melanoma): 6.71 µM
GI50 (SK-OV-3 ovarian): 8.79 µM
TGI (SK-OV-3 ovarian): 22.5 µM
GI50 (SN12C renal): 3.02 µM
TGI (SN12C renal): 12.3 µM
GI50 (SNB-19 CNS): 11 µM
TGI (SNB-19 CNS): 24 µM
GI50 (SNB-75 CNS): 2.07 µM
TGI (SNB-75 CNS): 9.17 µM
GI50 (SR leukemia): 4.47 µM
TGI (SR leukemia): 50.8 µM
GI50 (SW-620 colon): 3.95 µM
TGI (SW-620 colon): 15.9 µM
GI50 (T-47D breast): 3.66 µM
TGI (T-47D breast): 15.3 µM
GI50 (TK-10 renal): 5.46 µM
TGI (TK-10 renal): 17.6 µM
GI50 (U251 CNS): 5.49 µM
TGI (U251 CNS): 18.5 µM
GI50 (UACC-257 melanoma): 8.5 µM
TGI (UACC-257 melanoma): 23.5 µM
GI50 (UACC-62 melanoma): 4.46 µM
TGI (UACC-62 melanoma): 17.5 µM
GI50 (UO-31 renal): 2.59 µM
TGI (UO-31 renal): 11.9 µM
